According to BindingDB's records for patent US10988451 (Gilead Sciences, 2021):

These compounds were tested against T1, Induced myeloid leukemia cell differentiation protein Mcl-1 [171-327] (Homo sapiens, UniProt Q07820) (assay: AlphaLISA Assay).
T1 construct: 171-327
Protocol: The AlphaLISA assay was performed in a 384-well Proxiplate in a total volume of […]. The reaction mixture contained 0.0625 nM 6× His-Mcl-1 (171-327), 0.0625 nM biotinylated-Bim peptide, 10 μg/mL AlphaLISA anti-6×His-AlphaLISA acceptor beads, 40 μg/mL AlphaScreen streptavidin donor beads, and serially diluted test compounds in the binding buffer (20 mM Hepes, pH 7.5 (Teknova H1035); 150 mM NaCl (Promega V4221); 0.002% Brij 35 (Thermo Scientific 20150); 1 mM Dithiothreitol (DTT) Solution (Affymetrix 70726); 0.01% BSA (BioLabs B9000S)). 1,000× test compounds were pre-spotted onto 384-well Proxiplate (Labcyte Echo) by Echo 555 Liquid Handler (Labcyte Inc., San Jose, Calif.) followed by incubation of 5 μl Mcl-1(171-327) for 1 hour. Then 5 μL Bim (51-76) was added and incubated for 2 hours. Five μL AlphaLISA anti-6His-AlphaLISA acceptor beads were then added for 1 hour followed by addition of 5 μL AlphaScreen streptavidin donor beads for 1 hour. The reaction plates were then read on an Envision multimode reader (PerkinElmer) using AlphaScreen settings.

T1 sequence (Q07820 171-327): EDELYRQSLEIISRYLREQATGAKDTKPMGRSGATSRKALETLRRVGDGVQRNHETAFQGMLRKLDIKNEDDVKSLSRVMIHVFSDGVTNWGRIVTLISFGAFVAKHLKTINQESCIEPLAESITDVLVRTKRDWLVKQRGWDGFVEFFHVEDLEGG

Question: Which IC50 does the source give for CO[C@H]1/C=C/C[C@H](C)C[S@@](=O)(NC(=O)C2CC(OC(F)F)C2)=NC(=O)c2ccc3c(c2)N(C[C@@H]2CC[C@H]21)C[C@@]1(CCCc2cc(Cl)ccc21)CO3 (stereo partly drawn) [US10988451, Example 431] here?
Answer: 0.121 nM

Question: Which IC50 does the source give for C[C@@H]1[C@@H](C)C/C=C/[C@H](O)[C@@H]2CC[C@H]2CN2C[C@@]3(CCCc4cc(Cl)ccc43)COc3ccc(cc32)C(=O)N=[S@]1(=O)NC(=O)c1cc2n(c1)C[C@H](CN1CCN3CCOC[C@H]3C1)OC2 [US10988451, Example 229] here?
Answer: 0.03 nM

Question: Which IC50 does the source give for CO[C@H]1/C=C/C[C@H](C)C[S@@](=O)(NC(=O)c2cc3n(c2F)CCOC3)=NC(=O)c2ccc3c(c2)N(C[C@@H]2CC[C@H]21)C[C@@]1(CCCc2cc(Cl)ccc21)CO3 [US10988451, Example 174] here?
Answer: 0.153 nM
